Laboratory results reported in the NIST ThermoML archive (doi:10.1021/je060179e).

Assay: xn = mol fraction of the nth substance listed
Conditions: for mass density: 101 kPa, Liquid

CCCCO [butan-1-ol] + CCCCCCC
Conditions	mass density [kg/m3]	surface tension liquid-gas [mN/m]
288.15 K, x2 = 0.0498	–	24.31
288.15 K, x2 = 0.051	803.35	–
288.15 K, x2 = 0.0998	794.33	–
288.15 K, x2 = 0.1007	–	23.81
288.15 K, x2 = 0.2005	–	22.99
288.15 K, x2 = 0.2067	776.12	–
288.15 K, x2 = 0.3043	–	22.37
288.15 K, x2 = 0.3087	760.61	–
288.15 K, x2 = 0.4058	–	21.88
288.15 K, x2 = 0.4059	747.14	–
288.15 K, x2 = 0.5052	734.63	–
288.15 K, x2 = 0.5054	–	21.56
288.15 K, x2 = 0.5986	724.01	–
288.15 K, x2 = 0.599	–	21.38
288.15 K, x2 = 0.7072	–	21.17
288.15 K, x2 = 0.7259	710.89	–
288.15 K, x2 = 0.8008	–	21.03
288.15 K, x2 = 0.8066	703.39	–
288.15 K, x2 = 0.8982	–	20.94
288.15 K, x2 = 0.908	694.8	–
288.15 K, x2 = 0.9523	691.35	–
288.15 K, x2 = 0.9532	–	20.87
293.15 K, x2 = 0.0503	–	23.76
293.15 K, x2 = 0.051	799.52	–
293.15 K, x2 = 0.0998	790.46	–
293.15 K, x2 = 0.1008	–	23.26
293.15 K, x2 = 0.201	–	22.44
293.15 K, x2 = 0.2067	772.16	–
293.15 K, x2 = 0.2986	–	21.85
293.15 K, x2 = 0.3087	756.57	–
293.15 K, x2 = 0.4002	–	21.37
293.15 K, x2 = 0.4059	743	–
293.15 K, x2 = 0.5009	–	21.01
293.15 K, x2 = 0.5052	730.46	–
293.15 K, x2 = 0.5986	719.8	–
293.15 K, x2 = 0.5998	–	20.79
293.15 K, x2 = 0.7034	–	20.62
293.15 K, x2 = 0.7259	706.65	–
293.15 K, x2 = 0.7971	–	20.51
293.15 K, x2 = 0.8066	699.15	–
293.15 K, x2 = 0.902	–	20.37
293.15 K, x2 = 0.908	690.55	–
293.15 K, x2 = 0.9511	–	20.33
293.15 K, x2 = 0.9523	687.11	–
298.15 K, x2 = 0.051	795.66	–
298.15 K, x2 = 0.056	–	23.17
298.15 K, x2 = 0.0937	–	22.75
298.15 K, x2 = 0.0998	786.55	–
298.15 K, x2 = 0.2067	768.15	–
298.15 K, x2 = 0.2085	–	21.94
298.15 K, x2 = 0.302	–	21.35
298.15 K, x2 = 0.3087	752.48	–
298.15 K, x2 = 0.3975	–	20.86
298.15 K, x2 = 0.4059	738.85	–
298.15 K, x2 = 0.5052	726.25	–
298.15 K, x2 = 0.5054	–	20.44
298.15 K, x2 = 0.5986	715.56	–
298.15 K, x2 = 0.6086	–	20.17
298.15 K, x2 = 0.7259	702.38	–
298.15 K, x2 = 0.806	–	19.99
298.15 K, x2 = 0.8066	694.86	–
298.15 K, x2 = 0.908	686.27	–
298.15 K, x2 = 0.9082	–	19.85
298.15 K, x2 = 0.9502	–	19.81
298.15 K, x2 = 0.9523	682.83	–
303.15 K, x2 = 0.0491	–	22.62
303.15 K, x2 = 0.051	791.77	–
303.15 K, x2 = 0.0997	–	22.16
303.15 K, x2 = 0.0998	782.61	–
303.15 K, x2 = 0.2052	–	21.41
303.15 K, x2 = 0.2067	764.11	–
303.15 K, x2 = 0.3051	–	20.81
303.15 K, x2 = 0.3087	748.35	–
303.15 K, x2 = 0.4003	–	20.3
303.15 K, x2 = 0.4059	734.65	–
303.15 K, x2 = 0.504	–	19.92
303.15 K, x2 = 0.5052	722	–
303.15 K, x2 = 0.5966	–	19.72
303.15 K, x2 = 0.5986	711.28	–
303.15 K, x2 = 0.7052	–	19.48
303.15 K, x2 = 0.7259	698.07	–
303.15 K, x2 = 0.8014	–	19.39
303.15 K, x2 = 0.8066	690.54	–
303.15 K, x2 = 0.9024	–	19.3
303.15 K, x2 = 0.908	681.95	–
303.15 K, x2 = 0.9507	–	19.27
303.15 K, x2 = 0.9523	678.52	–
308.15 K, x2 = 0.0507	–	22.35
308.15 K, x2 = 0.051	787.85	–
308.15 K, x2 = 0.0998	778.63	–
308.15 K, x2 = 0.1017	–	21.89
308.15 K, x2 = 0.2054	–	20.98
308.15 K, x2 = 0.2067	760.04	–
308.15 K, x2 = 0.3025	–	20.33
308.15 K, x2 = 0.3087	744.18	–
308.15 K, x2 = 0.4017	–	19.87
308.15 K, x2 = 0.4059	730.42	–
308.15 K, x2 = 0.5052	717.71	19.53
308.15 K, x2 = 0.5986	706.95	–
308.15 K, x2 = 0.6007	–	19.28
308.15 K, x2 = 0.7259	693.71	–
308.15 K, x2 = 0.7306	–	19.2
308.15 K, x2 = 0.8066	686.18	–
308.15 K, x2 = 0.8079	–	19.1
308.15 K, x2 = 0.908	677.61	–
308.15 K, x2 = 0.9086	–	18.99
308.15 K, x2 = 0.9523	674.17	–
308.15 K, x2 = 0.9532	–	18.9

CCCCCCO [hexan-1-ol] + CCCCCCC
Conditions	mass density [kg/m3]	surface tension liquid-gas [mN/m]
288.15 K, x2 = 0.05	814.76	–
288.15 K, x2 = 0.0507	–	25.6
288.15 K, x2 = 0.0976	807.66	–
288.15 K, x2 = 0.1018	–	25.01
288.15 K, x2 = 0.2001	–	24.02
288.15 K, x2 = 0.3087	–	23.22
288.15 K, x2 = 0.3197	775.17	–
288.15 K, x2 = 0.3943	764.62	–
288.15 K, x2 = 0.3949	–	22.55
288.15 K, x2 = 0.5021	–	22.16
288.15 K, x2 = 0.5088	748.93	–
288.15 K, x2 = 0.6053	–	21.8
288.15 K, x2 = 0.6171	734.53	–
288.15 K, x2 = 0.7045	723.24	–
288.15 K, x2 = 0.7097	–	21.46
288.15 K, x2 = 0.8055	–	21.2
288.15 K, x2 = 0.808	710.42	–
288.15 K, x2 = 0.9066	–	21.05
288.15 K, x2 = 0.9072	698.54	–
288.15 K, x2 = 0.9517	–	20.94
293.15 K, x2 = 0.0494	–	25.01
293.15 K, x2 = 0.05	811.17	–
293.15 K, x2 = 0.0976	804.03	–
293.15 K, x2 = 0.1036	–	24.45
293.15 K, x2 = 0.201	–	23.47
293.15 K, x2 = 0.3037	–	22.65
293.15 K, x2 = 0.3197	771.33	–
293.15 K, x2 = 0.3943	760.72	–
293.15 K, x2 = 0.4422	–	21.75
293.15 K, x2 = 0.5056	–	21.54
293.15 K, x2 = 0.5088	744.95	–
293.15 K, x2 = 0.5979	–	21.26
293.15 K, x2 = 0.6171	730.47	–
293.15 K, x2 = 0.6999	–	20.8
293.15 K, x2 = 0.7045	719.14	–
293.15 K, x2 = 0.808	706.27	–
293.15 K, x2 = 0.8091	–	20.54
293.15 K, x2 = 0.9061	–	20.43
293.15 K, x2 = 0.9072	694.33	–
293.15 K, x2 = 0.951	–	20.29
298.15 K, x2 = 0.0497	–	24.61
298.15 K, x2 = 0.05	807.56	–
298.15 K, x2 = 0.0976	800.37	–
298.15 K, x2 = 0.0987	–	24.05
298.15 K, x2 = 0.2023	–	22.92
298.15 K, x2 = 0.3096	–	22.09
298.15 K, x2 = 0.3197	767.46	–
298.15 K, x2 = 0.3943	756.8	–
298.15 K, x2 = 0.4078	–	21.45
298.15 K, x2 = 0.5054	–	21.04
298.15 K, x2 = 0.5088	740.94	–
298.15 K, x2 = 0.6099	–	20.58
298.15 K, x2 = 0.6171	726.39	–
298.15 K, x2 = 0.7045	715.01	–
298.15 K, x2 = 0.7075	–	20.28
298.15 K, x2 = 0.808	702.07	–
298.15 K, x2 = 0.8127	–	20.04
298.15 K, x2 = 0.905	–	19.93
298.15 K, x2 = 0.9072	690.09	–
298.15 K, x2 = 0.9515	–	19.74
303.15 K, x2 = 0.0488	–	24.1
303.15 K, x2 = 0.05	803.92	–
303.15 K, x2 = 0.0976	796.68	–
303.15 K, x2 = 0.1027	–	23.55
303.15 K, x2 = 0.1865	–	22.62
303.15 K, x2 = 0.31	–	21.59
303.15 K, x2 = 0.3197	763.56	–
303.15 K, x2 = 0.3943	752.84	–
303.15 K, x2 = 0.4122	–	20.97
303.15 K, x2 = 0.5086	–	20.49
303.15 K, x2 = 0.5088	736.9	–
303.15 K, x2 = 0.6147	–	20
303.15 K, x2 = 0.6171	722.28	–
303.15 K, x2 = 0.7045	710.84	–
303.15 K, x2 = 0.7097	–	19.78
303.15 K, x2 = 0.808	697.85	–
303.15 K, x2 = 0.8089	–	19.54
303.15 K, x2 = 0.9068	–	19.26
303.15 K, x2 = 0.9072	685.82	–
303.15 K, x2 = 0.9519	–	19.13
308.15 K, x2 = 0.0428	–	23.64
308.15 K, x2 = 0.05	800.26	–
308.15 K, x2 = 0.0976	792.98	–
308.15 K, x2 = 0.1025	–	23.03
308.15 K, x2 = 0.1986	–	22
308.15 K, x2 = 0.3055	–	21.1
308.15 K, x2 = 0.3197	759.64	–
308.15 K, x2 = 0.3943	748.86	–
308.15 K, x2 = 0.403	–	20.52
308.15 K, x2 = 0.498	–	20.11
308.15 K, x2 = 0.5088	732.83	–
308.15 K, x2 = 0.6165	–	19.57
308.15 K, x2 = 0.6171	718.13	–
308.15 K, x2 = 0.7042	–	19.35
308.15 K, x2 = 0.7045	706.64	–
308.15 K, x2 = 0.808	693.59	–
308.15 K, x2 = 0.8118	–	19.06
308.15 K, x2 = 0.9054	–	18.89
308.15 K, x2 = 0.9072	681.51	–
308.15 K, x2 = 0.9503	–	18.77
